# Measured values taken from ChEMBL document CHEMBL1201862, “PubChem BioAssay data set” (2004).
# Calls of active or inactive are those of the source.
# Columns and labels:
# Leucine aminopeptidase = molecular target: T1, Leucine aminopeptidase (Plasmodium falciparum 3D7, UniProt Q8IL11); test: P. falciparum M17LAP inhibitors, primary screen, biochemical, fluorogenic H-Leu-NHMec substrate, 1536-well (AID 1619); assay type: functional
# T1 sequence (Q8IL11 whole entry): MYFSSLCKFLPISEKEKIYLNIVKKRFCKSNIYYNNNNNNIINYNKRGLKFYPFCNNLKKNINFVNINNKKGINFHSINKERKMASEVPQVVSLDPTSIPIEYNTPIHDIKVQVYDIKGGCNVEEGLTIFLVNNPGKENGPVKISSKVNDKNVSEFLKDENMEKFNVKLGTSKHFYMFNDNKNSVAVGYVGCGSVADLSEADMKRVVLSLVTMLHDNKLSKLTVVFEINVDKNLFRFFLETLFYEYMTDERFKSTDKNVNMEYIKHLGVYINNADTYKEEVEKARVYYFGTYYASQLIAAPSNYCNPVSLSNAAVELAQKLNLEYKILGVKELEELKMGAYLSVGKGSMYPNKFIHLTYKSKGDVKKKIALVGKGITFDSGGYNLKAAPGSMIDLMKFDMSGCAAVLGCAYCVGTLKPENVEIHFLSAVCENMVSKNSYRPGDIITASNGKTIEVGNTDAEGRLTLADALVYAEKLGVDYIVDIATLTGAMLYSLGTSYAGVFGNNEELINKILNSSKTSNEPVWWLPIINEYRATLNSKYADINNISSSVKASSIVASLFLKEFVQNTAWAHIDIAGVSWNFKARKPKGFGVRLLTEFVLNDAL
# H9c2 = test: cells; assay type: functional, cell-based; details: Rattus norvegicus, H9c2, Myocardium;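 note: confirmatory concentration-response retest of ultra-high-throughput screening hits for modulation of myocardial damage; cell death induced by hydrogen peroxide oxidative stress; compound pretreatment for 60 min then peroxide exposure for 2 h; potency is for protecting the cells against peroxide damage rather than for killing them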
# [1] = molecular target: T2, DNA repair and recombination protein RAD54-like (Homo sapiens, UniProt Q92698); test: inhibitors of human RAD54 branch migration, confirmation, biochemical, fluorescence, cherry-picked samples, dose series (AID 651657); assay type: functional
# T2 sequence (Q92698 whole entry): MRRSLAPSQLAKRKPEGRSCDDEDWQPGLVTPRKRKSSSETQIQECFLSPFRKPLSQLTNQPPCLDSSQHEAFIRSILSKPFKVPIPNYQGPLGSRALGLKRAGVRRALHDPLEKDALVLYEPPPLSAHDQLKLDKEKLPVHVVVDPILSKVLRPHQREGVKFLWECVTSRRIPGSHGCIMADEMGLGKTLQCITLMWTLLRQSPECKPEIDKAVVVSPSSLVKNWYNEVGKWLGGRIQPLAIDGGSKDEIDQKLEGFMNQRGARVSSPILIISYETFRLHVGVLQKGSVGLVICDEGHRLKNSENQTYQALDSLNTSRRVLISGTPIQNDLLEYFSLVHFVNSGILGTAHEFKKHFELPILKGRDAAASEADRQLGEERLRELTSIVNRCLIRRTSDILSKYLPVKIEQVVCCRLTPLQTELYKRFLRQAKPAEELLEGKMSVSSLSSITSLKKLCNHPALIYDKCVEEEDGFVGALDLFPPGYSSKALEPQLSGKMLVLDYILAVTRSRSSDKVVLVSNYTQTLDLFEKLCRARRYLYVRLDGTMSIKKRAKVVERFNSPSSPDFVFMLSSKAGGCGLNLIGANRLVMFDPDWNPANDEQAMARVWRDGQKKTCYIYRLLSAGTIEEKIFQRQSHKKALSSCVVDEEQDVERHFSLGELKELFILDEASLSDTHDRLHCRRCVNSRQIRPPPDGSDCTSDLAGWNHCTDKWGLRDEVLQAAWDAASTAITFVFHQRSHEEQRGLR
# [2] = inhibitors of Vif binding to APOBEC3G peptide, primary screen, biochemical, TR-FRET, GST-Vif 1-94, biotin-A3G peptide, dose response retest (AID 1117319); assay type: functional;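 note: TR-FRET signal of purified GST-Vif binding a biotinylated A3G peptide; inhibitors lower the FRET signal by blocking Vif and A3G binding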
# Fatty acid synthase [3] = molecular target: T3, Fatty acid synthase (Homo sapiens, UniProt P49327); test: FAS thioesterase domain inhibitors, dose response, biochemical, endpoint fluorescence intensity, uHTS hits (AID 624327); assay type: functional;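 note: fluorescence from hydrolysis of an O-methyl fluorescein acyl ester substrate by the enzyme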
# T3 sequence (P49327 whole entry, the tested form may be a part): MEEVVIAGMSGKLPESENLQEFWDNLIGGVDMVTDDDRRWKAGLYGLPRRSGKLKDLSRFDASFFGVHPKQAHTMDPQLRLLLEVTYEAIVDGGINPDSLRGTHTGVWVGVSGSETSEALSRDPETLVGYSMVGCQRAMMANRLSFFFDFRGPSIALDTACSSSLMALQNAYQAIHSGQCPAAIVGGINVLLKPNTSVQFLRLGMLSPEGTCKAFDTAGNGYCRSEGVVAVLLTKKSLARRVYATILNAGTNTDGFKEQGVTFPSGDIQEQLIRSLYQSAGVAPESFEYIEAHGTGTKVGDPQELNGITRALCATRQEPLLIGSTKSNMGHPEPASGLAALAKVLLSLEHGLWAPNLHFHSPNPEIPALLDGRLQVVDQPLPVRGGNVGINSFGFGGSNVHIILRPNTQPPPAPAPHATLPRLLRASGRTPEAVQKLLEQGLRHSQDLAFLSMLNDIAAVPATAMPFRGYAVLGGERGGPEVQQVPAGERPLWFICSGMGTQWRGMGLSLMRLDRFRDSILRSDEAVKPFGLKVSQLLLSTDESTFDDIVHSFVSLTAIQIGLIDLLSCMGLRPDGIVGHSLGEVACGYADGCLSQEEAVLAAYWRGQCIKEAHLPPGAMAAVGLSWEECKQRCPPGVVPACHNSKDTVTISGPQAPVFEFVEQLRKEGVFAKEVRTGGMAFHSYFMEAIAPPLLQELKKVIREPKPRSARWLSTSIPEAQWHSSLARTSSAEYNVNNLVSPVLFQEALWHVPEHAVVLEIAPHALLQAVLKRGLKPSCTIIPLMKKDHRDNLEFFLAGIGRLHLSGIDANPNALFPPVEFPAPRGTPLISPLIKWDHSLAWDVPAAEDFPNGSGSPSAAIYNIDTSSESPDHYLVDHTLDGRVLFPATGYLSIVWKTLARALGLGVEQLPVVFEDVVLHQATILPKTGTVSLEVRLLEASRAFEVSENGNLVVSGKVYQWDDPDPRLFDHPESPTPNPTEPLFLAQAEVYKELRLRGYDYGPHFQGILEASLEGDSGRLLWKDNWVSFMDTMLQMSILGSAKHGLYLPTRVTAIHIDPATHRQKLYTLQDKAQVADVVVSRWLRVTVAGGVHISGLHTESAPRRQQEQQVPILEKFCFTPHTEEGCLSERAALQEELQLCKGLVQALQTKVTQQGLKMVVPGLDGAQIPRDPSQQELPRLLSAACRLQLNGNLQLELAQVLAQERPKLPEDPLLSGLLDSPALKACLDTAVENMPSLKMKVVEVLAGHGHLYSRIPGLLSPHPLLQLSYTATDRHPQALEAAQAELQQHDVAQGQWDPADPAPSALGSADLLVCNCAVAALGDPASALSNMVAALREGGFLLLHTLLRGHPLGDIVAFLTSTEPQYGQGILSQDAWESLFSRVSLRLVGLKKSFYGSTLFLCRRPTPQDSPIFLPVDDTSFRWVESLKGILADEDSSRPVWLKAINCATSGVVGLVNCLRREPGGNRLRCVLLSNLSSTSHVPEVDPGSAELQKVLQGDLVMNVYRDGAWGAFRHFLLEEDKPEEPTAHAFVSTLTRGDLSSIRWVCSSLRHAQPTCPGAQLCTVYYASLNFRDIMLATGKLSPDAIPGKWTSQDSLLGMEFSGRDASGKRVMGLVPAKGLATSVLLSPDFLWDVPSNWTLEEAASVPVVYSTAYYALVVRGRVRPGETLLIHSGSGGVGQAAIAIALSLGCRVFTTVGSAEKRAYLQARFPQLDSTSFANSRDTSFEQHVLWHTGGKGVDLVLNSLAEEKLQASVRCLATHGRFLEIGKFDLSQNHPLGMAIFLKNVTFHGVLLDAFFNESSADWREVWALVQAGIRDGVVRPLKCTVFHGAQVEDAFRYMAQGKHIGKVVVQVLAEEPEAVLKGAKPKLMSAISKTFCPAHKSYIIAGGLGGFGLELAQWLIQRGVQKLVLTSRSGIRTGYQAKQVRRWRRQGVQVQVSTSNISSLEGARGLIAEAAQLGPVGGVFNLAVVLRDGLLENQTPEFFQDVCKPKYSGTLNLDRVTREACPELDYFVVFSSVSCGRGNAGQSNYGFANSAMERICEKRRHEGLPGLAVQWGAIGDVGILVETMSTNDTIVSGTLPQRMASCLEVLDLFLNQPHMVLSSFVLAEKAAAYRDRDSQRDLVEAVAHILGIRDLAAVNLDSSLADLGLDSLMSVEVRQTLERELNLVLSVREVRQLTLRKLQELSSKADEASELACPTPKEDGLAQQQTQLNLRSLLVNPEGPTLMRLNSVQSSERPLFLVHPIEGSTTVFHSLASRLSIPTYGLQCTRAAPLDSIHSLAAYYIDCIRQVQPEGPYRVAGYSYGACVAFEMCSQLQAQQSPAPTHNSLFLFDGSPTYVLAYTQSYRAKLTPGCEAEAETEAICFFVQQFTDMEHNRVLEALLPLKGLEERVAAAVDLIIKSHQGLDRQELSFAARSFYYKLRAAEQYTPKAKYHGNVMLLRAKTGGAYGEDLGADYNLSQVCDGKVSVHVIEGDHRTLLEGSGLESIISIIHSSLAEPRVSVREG
# Fatty acid synthase [4] = molecular target: T3, Fatty acid synthase; test: FAS thioesterase domain inhibitors, dose response, biochemical, kinetic fluorescence intensity (AID 624326); assay type: functional;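 note: rate of fluorescence rise from hydrolysis of a fluorogenic O-methyl fluorescein ester substrate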
# [5] = molecular target: T4, Apoptotic protease-activating factor 1 (Homo sapiens, UniProt O14727); assay type: functional
# T4 sequence (O14727 whole entry): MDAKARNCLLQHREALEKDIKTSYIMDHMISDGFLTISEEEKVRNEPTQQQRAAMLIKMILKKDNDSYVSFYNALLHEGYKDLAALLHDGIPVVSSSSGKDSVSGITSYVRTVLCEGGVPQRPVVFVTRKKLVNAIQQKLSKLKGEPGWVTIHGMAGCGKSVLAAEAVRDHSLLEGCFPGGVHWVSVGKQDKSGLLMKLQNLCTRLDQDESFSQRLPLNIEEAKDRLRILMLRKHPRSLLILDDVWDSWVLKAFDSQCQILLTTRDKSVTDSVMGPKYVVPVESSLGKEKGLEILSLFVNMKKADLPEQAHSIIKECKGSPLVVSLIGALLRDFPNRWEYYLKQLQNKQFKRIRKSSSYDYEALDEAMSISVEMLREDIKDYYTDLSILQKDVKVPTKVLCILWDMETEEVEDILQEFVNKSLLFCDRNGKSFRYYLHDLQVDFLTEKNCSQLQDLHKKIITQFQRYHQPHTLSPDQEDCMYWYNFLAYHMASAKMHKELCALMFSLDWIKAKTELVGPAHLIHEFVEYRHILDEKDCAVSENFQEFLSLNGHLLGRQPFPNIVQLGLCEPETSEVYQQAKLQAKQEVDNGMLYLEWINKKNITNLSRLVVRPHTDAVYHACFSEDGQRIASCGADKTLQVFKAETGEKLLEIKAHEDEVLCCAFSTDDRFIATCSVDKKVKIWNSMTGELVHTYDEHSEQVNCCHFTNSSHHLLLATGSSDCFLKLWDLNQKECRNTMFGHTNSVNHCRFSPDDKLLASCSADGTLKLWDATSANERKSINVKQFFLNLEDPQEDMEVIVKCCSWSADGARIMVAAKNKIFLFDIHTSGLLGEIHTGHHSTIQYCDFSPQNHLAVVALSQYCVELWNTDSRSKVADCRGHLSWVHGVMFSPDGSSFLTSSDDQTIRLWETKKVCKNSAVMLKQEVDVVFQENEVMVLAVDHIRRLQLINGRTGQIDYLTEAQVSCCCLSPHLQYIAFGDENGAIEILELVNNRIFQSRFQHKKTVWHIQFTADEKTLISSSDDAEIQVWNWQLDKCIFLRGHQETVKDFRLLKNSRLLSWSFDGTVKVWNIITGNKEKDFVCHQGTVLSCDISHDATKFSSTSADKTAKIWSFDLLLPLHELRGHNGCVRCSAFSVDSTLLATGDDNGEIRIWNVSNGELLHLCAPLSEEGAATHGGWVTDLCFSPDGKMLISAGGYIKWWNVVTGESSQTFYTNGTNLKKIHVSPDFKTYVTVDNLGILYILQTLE
# [6] = molecular target: T5, DNA repair protein RAD52 homolog (Homo sapiens, UniProt P43351); assay type: functional, biochemical
# T5 sequence (P43351 whole entry): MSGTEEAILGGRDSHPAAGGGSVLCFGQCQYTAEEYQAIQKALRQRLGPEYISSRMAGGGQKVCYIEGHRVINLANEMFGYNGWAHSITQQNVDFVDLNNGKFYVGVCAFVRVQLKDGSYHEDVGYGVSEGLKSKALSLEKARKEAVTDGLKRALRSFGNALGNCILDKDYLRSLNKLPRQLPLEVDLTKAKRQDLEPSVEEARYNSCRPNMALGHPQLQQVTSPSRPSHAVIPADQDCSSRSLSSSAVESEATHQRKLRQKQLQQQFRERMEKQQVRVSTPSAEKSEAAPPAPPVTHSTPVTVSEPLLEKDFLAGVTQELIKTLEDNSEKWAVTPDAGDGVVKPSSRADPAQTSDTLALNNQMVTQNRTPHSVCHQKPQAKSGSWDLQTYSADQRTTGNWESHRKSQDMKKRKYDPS
# Aminopeptidase N = molecular target: T6, Aminopeptidase N (Plasmodium falciparum FcB1/Columbia, UniProt O96935); test: P. falciparum M1AAP inhibitors, biochemical, fluorogenic H-Leu-NHMec substrate, 1536-well (AID 1445); set-up: species or system Plasmodium falciparum 3D7, 3D7
# T6 sequence (O96935 whole entry): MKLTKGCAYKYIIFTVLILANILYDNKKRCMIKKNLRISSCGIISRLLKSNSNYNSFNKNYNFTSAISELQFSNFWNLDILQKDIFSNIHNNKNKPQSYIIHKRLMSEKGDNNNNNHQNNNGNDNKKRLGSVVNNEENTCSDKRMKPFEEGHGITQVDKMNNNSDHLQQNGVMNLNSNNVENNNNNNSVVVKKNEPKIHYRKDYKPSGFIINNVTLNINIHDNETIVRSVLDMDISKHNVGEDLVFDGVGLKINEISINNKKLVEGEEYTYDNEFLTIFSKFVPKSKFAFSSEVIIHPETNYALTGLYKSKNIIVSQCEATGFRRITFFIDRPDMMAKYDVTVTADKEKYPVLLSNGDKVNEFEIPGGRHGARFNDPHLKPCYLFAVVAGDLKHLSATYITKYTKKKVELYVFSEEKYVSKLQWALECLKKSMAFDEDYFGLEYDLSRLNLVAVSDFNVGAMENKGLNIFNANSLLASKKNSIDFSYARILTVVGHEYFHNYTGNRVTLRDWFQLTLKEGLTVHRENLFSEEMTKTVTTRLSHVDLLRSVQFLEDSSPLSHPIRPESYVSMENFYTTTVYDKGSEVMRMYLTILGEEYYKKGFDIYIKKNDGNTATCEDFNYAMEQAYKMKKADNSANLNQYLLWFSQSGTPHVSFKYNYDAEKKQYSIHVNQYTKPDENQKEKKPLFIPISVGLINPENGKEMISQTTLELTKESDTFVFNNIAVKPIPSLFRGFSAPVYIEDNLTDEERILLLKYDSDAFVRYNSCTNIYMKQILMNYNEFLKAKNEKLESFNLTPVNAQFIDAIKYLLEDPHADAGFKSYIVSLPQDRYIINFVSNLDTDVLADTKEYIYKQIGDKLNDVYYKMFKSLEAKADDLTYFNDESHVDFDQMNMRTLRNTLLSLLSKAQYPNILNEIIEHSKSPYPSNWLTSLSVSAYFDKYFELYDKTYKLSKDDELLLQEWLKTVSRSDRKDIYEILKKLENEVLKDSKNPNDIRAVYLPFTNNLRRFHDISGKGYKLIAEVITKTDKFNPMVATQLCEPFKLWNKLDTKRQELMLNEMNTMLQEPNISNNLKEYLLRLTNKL
# Paired box protein Pax-8 = Paired box protein Pax-8 (Homo sapiens, UniProt Q06710); test: inhibitors of PAX8-driven TPO luciferase reporter, dose response, RMG-I cells, cherry-pick (AID 687027); assay type: functional, cell-based;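 note: luciferase reporter driven by Pax8 target thyroperoxidase promoter measured by SteadyGlo luminescence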
# Chain of Paired box protein Pax-8 (Q06710 whole entry): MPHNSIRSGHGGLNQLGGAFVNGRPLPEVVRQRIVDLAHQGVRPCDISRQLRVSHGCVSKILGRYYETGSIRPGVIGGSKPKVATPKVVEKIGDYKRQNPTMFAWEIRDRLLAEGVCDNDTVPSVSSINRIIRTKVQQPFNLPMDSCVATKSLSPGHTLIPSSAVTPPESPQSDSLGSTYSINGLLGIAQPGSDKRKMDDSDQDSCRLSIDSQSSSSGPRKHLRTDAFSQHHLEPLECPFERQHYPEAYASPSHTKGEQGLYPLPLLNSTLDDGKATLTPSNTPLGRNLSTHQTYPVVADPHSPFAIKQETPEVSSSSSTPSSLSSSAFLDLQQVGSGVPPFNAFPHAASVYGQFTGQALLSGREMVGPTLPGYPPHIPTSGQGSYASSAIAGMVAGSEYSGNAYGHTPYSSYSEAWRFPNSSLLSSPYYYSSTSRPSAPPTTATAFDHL
# [7] = PAX2 cell-based inhibition, dose response, selectivity assay for PAX8 inhibitor project, plate reader, dry powder samples (AID 743048); assay type: functional;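 note: HEK293 cells carrying a WT1 promoter luciferase reporter driven by expressed Pax2; potency is for inhibition of Pax2 driven reporter signal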
# [8] = cytotoxicity in OVCAR8 ovarian cancer cells, dose response, PAX8 project, cell-based, plate reader, dry powder samples (AID 743197); assay type: functional; details: OVCAR-8
# [9] = cytotoxicity dependent on PAX8, dose response, cell-based, plate reader, dry powder (AID 743049); assay type: functional
smiles,measurement,setting,value
O=C(CSc1nnc[nH]1)Nc1ccc(Br)cc1F,IC50,Leucine aminopeptidase,29.8 µM (active)
COc1ccc(CCn2c(=N)c(C(=O)NCC3CCCO3)cc3c(=O)n4cccc(C)c4nc32)cc1OC (stereo unspecified),IC50,H9c2,> 79 µM (inactive)
same,AC50,[1],14.4 µM (active)
CC1(C)Oc2ccc(C(=O)NC3CCCC3)cc2N(CC(=O)N2CCOCC2)C1=O,IC50,[2],> 100 µM (active)
CCc1cc2c(=O)n(-c3ccc(C)cc3)cnc2s1,IC50,[2],> 100 µM (active)
O=C(NCCCCc1ccccc1)c1cccc([N+](=O)[O-])c1,IC50,Fatty acid synthase [3],11.1 µM (active)
same,IC50,Fatty acid synthase [4],8.43 µM (active)
CCN1C(=O)N(CC)C(=O)C2(Cc3ccccc3N3CCN(c4ccccc4)CC32)C1=O (stereo unspecified),IC50,[2],> 100 µM (active)
COc1ccc(NCc2nnc(SCC(=O)N3CCCc4ccccc43)o2)cc1,IC50,[2],> 100 µM (active)
CCOC(=O)c1c(CN(C)C)n(C)c2c(O)c(N=NC(N)=O)c3ccc(Br)cc3c12,IC50,[5],12.1 µM (active)
same,AC50,[6],11.6 µM (active)
COc1ccc(NC(=O)CSC2CC(=O)N(c3ccc4c(c3)OCCO4)C2=O)cc1 (stereo unspecified),IC50,Leucine aminopeptidase,16.1 µM (active)
Cc1csc(N2CCN(c3cc4c(cc3Cl)nc(-c3ccncc3)n4CCCN3CCCC3)CC2)n1,AC50,[6],4.61 µM (active)
CCc1nnc(NC(=O)CSc2nnc(-c3ccc(NS(=O)(=O)c4ccccc4)cc3)o2)s1,IC50,Leucine aminopeptidase,< 1 µM (active)
same,IC50,Aminopeptidase N,59.8 µM (active)
O=C(NCCCN1CCOCC1)c1cnn2c(-c3ccccc3)cc(-c3ccccc3)nc12,AC50,[1],27 µM (active)
NC(=O)c1c(NC(=S)Nc2ccc(F)cc2)sc2c1CCCC2,IC50,Leucine aminopeptidase,92 µM (active)
CC1(C)CCN(Cc2ccccc2)C1CC#N (stereo unspecified),IC50,[2],> 100 µM (active)
CCN(Cc1ccccc1)C(=O)c1cnc2ccc(S(=O)(=O)N(C)CCC#N)cc2c1O,IC50,Fatty acid synthase [3],12 µM (active)
same,IC50,Fatty acid synthase [4],7.6 µM (active)
COC(=O)c1c(NC(=O)C2C3CCC(O3)C2C(=O)O)sc2c1CCCCCC2 (stereo unspecified),IC50,Leucine aminopeptidase,48.9 µM (active)
CCN(CC)CCCN(C(=O)c1ccc(Br)cc1)c1nc(-c2ccc(OC)cc2)cs1,AC50,[6],17.2 µM (active)
Cc1ccc(C(=O)NCC(=O)OCc2nnc(-c3ccc([N+](=O)[O-])cc3)o2)s1,IC50,Fatty acid synthase [3],15.1 µM (active)
same,IC50,Fatty acid synthase [4],12.7 µM (active)
CCc1nc2c(OCc3ccc(Cl)cc3Cl)cccn2c1N(C=O)Cc1ccc(OC)cc1,IC50,Fatty acid synthase [3],2.45 µM (active)
same,IC50,Fatty acid synthase [4],1.46 µM (active)
CN(C)CCCNc1nc2cc(-c3ccc(C(=O)N4CCN(C)CC4)cc3)sc2c(=O)n1C,AC50,[1],47.7 µM (active)
COc1ccc(S(=O)(=O)Nc2ccc3c(c2)CC(=O)N([C@@H](C)CO)C[C@@H](C)[C@@H](CN(C)Cc2ccc(-c4ccccc4)cc2)O3)cc1,AC50,Paired box protein Pax-8,24.6 µM (active)
same,AC50,[7],42 µM (active)
same,AC50,[8],> 70 µM (inactive)
same,AC50,[9],44.2 µM (active)
